In the NIST ThermoML archive (doi:10.1016/j.fluid.2010.10.003):
Numbers after ± are expanded uncertainties.

Columns and labels:
[1] = xn = mol fraction of the nth substance listed; conditions: 298.15 K, 101 kPa, Liquid; for viscosity: Capillary tube (Ostwald / Ubbelohde) method; for mass density: Vibrating tube method
[2] = refractive index (Na D-line) (dimensionless); xn = mol fraction of the nth substance listed; conditions: 298.15 K, 101 kPa, Liquid, Standard Abbe refractometry
[3] = refractive index (Na D-line) (dimensionless); conditions: 298.15 K; 101.33 kPa; Liquid; Standard Abbe refractometry
[4] = 298.15 K, 101.33 kPa, Liquid; for viscosity: Capillary tube (Ostwald / Ubbelohde) method; for mass density: Vibrating tube method

CC(=O)OC(C)C [1-methylethyl ethanoate] + CCCC[n+]1ccn(C)c1.O=S(=O)([N-]S(=O)(=O)C(F)(F)F)C(F)(F)F
Conditions | mass density, [1] [kg/m3] | refractive index, [2] | viscosity, [1] [mPa·s]
x1 = 0.0514 | 1425.08 ± 0.58 | 1.42609 ± 0.00037 | 44.31 ± 0.55
x1 = 0.1096 | 1411.17 ± 0.54 | 1.42501 ± 0.00036 | 38.56 ± 0.47
x1 = 0.1554 | 1399.42 ± 0.51 | 1.42412 ± 0.00036 | 33.87 ± 0.41
x1 = 0.1972 | 1388.1 ± 0.49 | 1.42326 ± 0.00036 | 30.34 ± 0.36
x1 = 0.2961 | 1358.2 ± 0.43 | 1.42092 ± 0.00035 | 22.58 ± 0.27
x1 = 0.4241 | 1312.34 ± 0.38 | 1.41733 ± 0.00034 | 14.46 ± 0.17
x1 = 0.5168 | 1272.49 ± 0.37 | 1.4142 ± 0.00034 | 10.07 ± 0.12
x1 = 0.5998 | 1230.54 ± 0.34 | 1.4107 ± 0.00034 | 6.918 ± 0.081
x1 = 0.7017 | 1168.62 ± 0.28 | 1.40538 ± 0.00033 | 4.356 ± 0.051
x1 = 0.7981 | 1095.44 ± 0.23 | 1.39882 ± 0.00033 | 2.363 ± 0.028
x1 = 0.8918 | 1005.35 ± 0.15 | 1.39016 ± 0.00032 | 1.41 ± 0.016

CC(=O)OC(C)C [1-methylethyl ethanoate]
Conditions | mass density [kg/m3] | refractive index | viscosity [mPa·s]
[3] | – | 1.3748 ± 0.00032 | –
[4] | 866.21 ± 0.12 | – | 0.481 ± 0.006

CCCC[n+]1ccn(C)c1.O=S(=O)([N-]S(=O)(=O)C(F)(F)F)C(F)(F)F
Conditions | mass density [kg/m3] | refractive index | viscosity [mPa·s]
[3] | – | 1.42692 ± 0.001 | –
[4] | 1436.58 ± 0.62 | – | 50.68 ± 1.4

CCCC[n+]1ccn(C)c1.O=S(=O)([N-]S(=O)(=O)C(F)(F)F)C(F)(F)F + CC(C)O
Conditions | mass density, [1] [kg/m3] | refractive index, [2] | viscosity, [1] [mPa·s]
x2 = 0.0515 | 1427.23 ± 0.58 | 1.42621 ± 0.00037 | 45.44 ± 0.56
x2 = 0.0962 | 1418.52 ± 0.56 | 1.42549 ± 0.00036 | 41.2 ± 0.51
x2 = 0.1921 | 1397.79 ± 0.51 | 1.42385 ± 0.00036 | 33.45 ± 0.4
x2 = 0.3213 | 1363.98 ± 0.45 | 1.42124 ± 0.00035 | 24.5 ± 0.29
x2 = 0.3896 | 1342.5 ± 0.42 | 1.41962 ± 0.00035 | 20.46 ± 0.24
x2 = 0.4869 | 1306.05 ± 0.4 | 1.41685 ± 0.00035 | 15.84 ± 0.19
x2 = 0.5173 | 1292.91 ± 0.41 | 1.41578 ± 0.00034 | 14.67 ± 0.17
x2 = 0.6074 | 1247.91 ± 0.36 | 1.4124 ± 0.00034 | 11.22 ± 0.13
x2 = 0.6943 | 1192.86 ± 0.33 | 1.40818 ± 0.00034 | 8.545 ± 0.099
x2 = 0.7996 | 1102.82 ± 0.27 | 1.40129 ± 0.00033 | 5.859 ± 0.068
x2 = 0.8995 | 978.52 ± 0.17 | 1.39152 ± 0.00033 | 3.898 ± 0.045

CC(C)O [propan-2-ol]
Conditions | mass density [kg/m3] | refractive index | viscosity [mPa·s]
[3] | – | 1.37502 ± 0.00033 | –
[4] | 780.88 ± 0.15 | – | 2.073 ± 0.024
